“And” between values parts separate entries of the source, which are not always exact repeats. Equal values may be shown once.
Point of comparison: `CCSC(SCC)=C1CCCC(=C(SCC)SCC)C1=C(C#N)C#N`, melting point 101 °C. Against it:
- Cc1cc(C(=O)OCC(=N)O)c(C)n1-c1ccc(F)cc1 [OSM-S-05] — higher, 178 °C
- CB(C)Br [bromodimethylborane] — lower, -129 °C
- Nc1ccc(CCC(=O)O)cc1 [3-(4-aminophenyl)propionic acid] — higher, 134 °C
- CCOC(=O)/C=C/C(=O)OCC [Diethyl (2E)-but-2-enedioate] — lower, 1 °C
- CCOc1ccc(N)cc1 [p-phenetidine] — lower, 3 °C
- Cc1ccnc(C)c1 [2,4-lutidine] — lower, -60 °C
- C=CC1=C(/C=N/Nc2ccc([N+](=O)[O-])cc2[N+](=O)[O-])CCCC1 — higher, 153 °C
- CC(=O)Nc1ccc(F)cc1F [2',4'-difluoroacetanilide] — higher, 122 °C
- O=C(CO)[C@@H](O)[C@@H](O)[C@H](O)CO [D-tagatose] — higher, 135 °C
- Nc1ccc([N+](=O)[O-])cc1C(=O)c1ccccc1 [2-amino-5-nitrobenzophenone] — higher, 167 °C
- Cc1ccc(CC#N)cc1 [p-tolylacetonitrile] — lower, 18 °C
- Fc1ccc(Br)nc1 [2-bromo-5-fluoropyridine] — lower, 29 °C
- CCOC(=O)C(C#N)=Cc1ccc(Cl)cc1 [Ethyl 3-(4-chlorophenyl)-2-cyanoacrylate] — higher, 138 °C
- SCCCS [1,3-propanedithiol] — lower, -79 °C
- CCOc1ccc2ccccc2c1C(=O)O [2-ethoxy-1-naphthoic acid] — higher, 144 °C
- Cc1cc(C)c(Br)c(C)c1 [2-bromomesitylene] — lower, 2 °C
- ICCI [1,2-diiodoethane] — lower, 81 °C
- Nc1ccccc1B(O)O [2-aminobenzeneboronic acid] — higher, 189 °C
- O=C1Nc2ccc(Cl)cc2C(c2ccccc2Cl)=NC1O (stereo unspecified) [Lorazepam] — higher, 166 °C
- c1ccc2ccccc2c1 [Naphthalene] — lower, 82 °C
- N#Cc1ccccc1N [2-aminobenzonitrile] — lower, 48 °C
- Cc1ccccc1-c1ccccc1 [1-methyl-2-phenylbenzene] — lower, 0 °C
- Cc1ccccc1OCC(=O)O [2-methylphenoxyacetic acid] — higher, 154 °C
- C/C(=C\C=C\c1ccccc1)C(=O)OC(=O)/C(C)=C/C=C/c1ccccc1 [(2E,4E)-2-methyl-5-phenylpenta-2,4-dienoic anhydride] — higher, 113 °C
- Cc1ccc([N+](=O)[O-])c(O)c1 [5-methyl-2-nitrophenol] — lower, 55 °C
- N#CCc1nc2ccccc2s1 [2-benzothiazoleacetonitrile] — the same, 101 °C
- COC(=O)c1cccc(N=C=O)c1 [3-(methoxycarbonyl)phenyl isocyanate] — lower, 37 °C
- CCOC(=O)CC(C)=O [ethyl acetoacetate] — lower, -43 °C
- CC(C)C(O)C(C)(C)CO (stereo unspecified) [2,2,4-trimethyl-1,3-pentanediol] — lower, 52 °C
- ClC(Cl)=C(Cl)Cl [tetrachloroethylene] — lower, -22 °C
- ClC1=C(Cl)C2(Cl)C3C4OC4C(Cl)C3C1(Cl)C2(Cl)Cl (stereo unspecified) [Heptachlor epoxide] — higher, 160 °C
- c1ccc2c(c1)oc1ccccc12 [dibenzofuran] — lower, 81 °C
- CC(C)(C)C(N)=S [2,2,2-trimethylthioacetamide] — higher, 115 °C
- NC1CONC1=O (stereo unspecified) [Cycloserine] — higher, 147 °C
- COC(=O)N/C=C/c1ccccc1[N+](=O)[O-] [methyl [(E)-2-(2-nitrophenyl)ethenyl]carbamate] — higher, 147 °C
- Clc1cccc(Cl)c1NC1=NCCN1 [Clonidine] — higher, 130 °C
- CCC/C=C/CCC [trans-4-octene] — lower, -94 °C
- O=c1[nH]c2ccc([N+](=O)[O-])cc2o1 [6-nitro-2(3h)-benzoxazolone] — higher, 246 °C
- C[C@]12CC[C@H]3[C@@H](CCC4=CC(=O)CC[C@@H]43)[C@@H]1CC[C@@H]2O [Nandrolone] — higher, 112 °C
- Clc1ccc(Cl)c(Cl)c1 [1,2,4-trichlorobenzene] — lower, 17 °C
- O=C[C@H](O)[C@@H](O)[C@H](O)[C@H](O)CO [D-glucose, anhydrous] — higher, 151 °C
- C[C@]12CC[C@H]3[C@@H](CCC4=CC(=O)CC[C@@]43C)[C@@H]1CC[C@@H]2O [(17beta)-17-Hydroxyandrost-4-en-3-one] — higher, 155 °C
- CCN1CCOCC1 [4-Ethylmorpholine] — lower, -63 °C
- CC(=O)O/C(=C\C=C(\OC(C)=O)c1ccccc1)c1ccccc1 [(1E,3Z)-4-(acetyloxy)-1,4-diphenylbuta-1,3-dien-1-yl acetate] — higher, 126 °C
- Clc1cc(Cl)cc(Cl)c1 [1,3,5-trichlorobenzene] — lower, 64 °C
- O=C1C=C/C(=O)N(N1)C [N-methylmaleic hydrazide] — higher, 218 °C
- C#CCO [propargyl alcohol] — lower, -53 °C
- CC(C)CCCC(C)CCCC(C)CCCCC(C)CCCC(C)CCCC(C)C (stereo unspecified) [squalane] — lower, -38 °C
- NC1=NCC(c2ccccc2)O1 (stereo unspecified) [aminorex] — higher, 136 °C
- Nc1ccc(C(F)(F)F)cc1Br [2-bromo-4-(trifluoromethyl)aniline] — lower, 30 °C
- CN(C)/C=C/[N+](=O)[O-] [1-dimethylamino-2-nitroethylene] — higher, 103 °C
- COc1ccc(NC(=O)N(C)C)cc1Cl [metoxuron] — higher, 127 °C
- C1CCC(NC2CCCCC2)CC1 [N-Cyclohexylcyclohexanamine] — lower, -1 °C
- c1ccc2c(c1)cc1ccc3cccc4ccc2c1c34 [3,4-benzopyrene] — higher, 179 °C
- CCOc1ccc(N)cc1 [p-ethoxyaniline] — lower, 4 °C
- Oc1noc2nc3ccccc3nc12 [isoxazolo[4,5-b]quinoxalin-3(2H)-one] — higher, 323 °C
- Nc1ccccc1C(=O)O [anthranilic acid] — higher, 147 °C
- Cc1cc[n+]([O-])cc1C(N)=O [4-methylpyridine-3-carboxamide 1-oxide] — higher, 280 °C
- O=C1OC(=O)C2C1C1(Cl)C(Cl)=C(Cl)C2(Cl)C1(Cl)Cl (stereo unspecified) [chlorendic anhydride] — higher, 237 °C
- OCCOCCOCCO [2,2'-[Ethane-1,2-diylbis(oxy)]diethanol] — lower, -4 °C
- CCOC(=O)/C(=N/Nc1ccccc1[N+](=O)[O-])C(C)=O — lower, 74 °C
- O=[N+]([O-])c1ccc(Cl)cc1[N+](=O)[O-] [1-chloro-3,4-dinitrobenzene] — lower, 23 °C
- CCOC(=O)CCC(C)C1CCC2C3C=CC4CC(OC(C)=O)CCC4(C)C3CC(OC(C)=O)C12C (stereo unspecified) [ethyl 3,12-bis(acetyloxy)chol-6-en-24-oate] — lower, 84 °C
- CC(C)[C@@H](NC(=O)OC(C)(C)C)C(=O)O [N-boc-D-valine] — lower, 78 °C
- c1ccc2c(c1)Nc1ccccc1S2 [Phenothazine] — higher, 187 °C
- C1=CC=C/C=CC=C1 [1,3,5,7-cyclooctatetraene] — lower, -5 °C
- CC(=O)CCC(=O)O [Laevulinic Acid] — lower, 33 °C
- C[Si](C)(C)Br [bromotrimethylsilane] — lower, -44 °C
- CCN(Cc1ccc(Cl)nc1)/C(=C/[N+](=O)[O-])NC — lower, 72 °C

With `Clc1cc(Cl)c(Cl)c(Cl)c1` [1,2,3,5-tetrachlorobenzene] the melting point was 53 °C and 55 °C and 51.5 °C.

From the Bradley open melting point set (2014)
